From publication PMC6270814, “Effects of Ursolic Acid Derivatives on Caco-2 Cells and Their Alleviating Role in Streptozocin-Induced Type 2 Diabetic Rats” (Molecules, 2014)

Experiments:
Caco-2 cells [1] = test: MTT cytotoxicity assay on Caco-2 cells; assay type: cell-based, Human; details: Homo sapiens, 24 h, mean ± SD, n = 4, read-out: Inhibition Rate %
Procedure: Human intestinal Caco-2 cells (ATCC, Rockville, MD, USA) were incubated at 37 °C in a humidified atmosphere of 5% CO2 in air. The cells were cultured in Dulbecco’s […] medium (DMEM) with 10% heat-inactivated fetal bovine serum, 1% non-essential amino acids, 1% L-glutamine, 1% penicillin/streptomycin (Gibco Life Technologies, Grand Island, NY, USA). The cells were sub-cultured at confluence by 0.05% trypsin-0.5 mM EDTA treatment before they were applied in the experiment.
A MTT test was conducted to determine the possible toxicity of UA and its derivatives to Caco-2 cells. Briefly, cells were seeded at a density of 1 × 10^4 cells/mL in a 96-well plate and incubated for 24 h. The next day, cells were incubated with vehicle (0.1% DMSO) and compounds at 100, 50, 25, 12.5 μmol/L for 24 h, and then 5 g/L MTT solution (20 μL) was added for 4 h. Absorbance at 570 nm was measured using a Multimodel Plate Reader (Infinite 200, Tecan, Mannedorf, Switzerland).

Caco-2 cells [2] = test: 2-NBDG glucose uptake by Caco-2 cell monolayers, Na+-independent (sodium free buffer); assay type: cell-based, Human; details: 100 μM compound, Na+-independent (KCl/K2HPO4 buffer)
Procedure: Caco-2 cells, which were derived from human colon adenocarcinoma, were selected for intestinal absorption studies because these cells express the morphological characteristics and most of the functional properties of differentiated small-intestinal enterocytes. Caco-2 cells were seeded on 24-well plates at the density of 2 × 10^5 cells/well. The medium was changed every 1–2 days, and the culture was carried out for 13 days. Then Caco-2 cells were placed in serum-free media for 24 h and then they were washed twice with Hanks’ balanced salt solution (HBSS, pH 7.5, 140 mM NaCl, 5 mM KCl, 1.2 mM Na2HPO4, 2 mM CaCl2, 1.2 mM MgSO4, 20 mM HEPES, 0.2% bovine serum albumin) before the uptake studies. When a sodium free buffer was required, NaCl and Na2HPO4 were replaced with equal amounts of KCl and K2HPO4, respectively. After washing, the cells were incubated for 15 min at room temperature in HBSS before the commencement of this experiment. The uptake studies were initiated by adding HBSS containing either control or test solution (100 μM) and […] (100 μM) for 30 min at 37 °C. Glucose uptake was stopped by adding twofold volume of ice-cold PBS and the wells were washed with ice-cold PBS three times. Fluorescent intensity was measured by a Multimodel Plate Reader (Tecan Infinity 200) with the 485 nmex and 535 nmemiss filter set before and after adding 2-NBDG. Then the cells were lysed in 200 μL lysis buffer (10 mM Tris-HCl pH = 7.4, 150 mM NaCl, 1% Triton-x-100, 1 mM EDTA, 0.1% SDS) and supplemented immediately before they were processed with 10 μg/mL PMSF. Cells were allowed to lyse on ice, and then vortexed and sonicated. The lysate was used for protein determination, protein concentrations were determined as described by BCA kit (Boster, Wuhan, China) with bovine serum albumin as standard.

[3] = system: STZ-induced diabetic rats; test: Serum biochemical parameters (insulin, total protein, albumin) in STZ-induced diabetic rats; assay type: in vivo, rat; details: 4 weeks, compounds 100 mg/kg, glibenclamide 10 mg/kg
Procedure: (§1) Diabetes was induced by a single intraperitoneal injection of streptozotocin (Sigma-Aldrich, St. Louis, MO, USA) at a dose of 65 mg/kg body weight. STZ was dissolved in 0.1 M cold citrate buffer, pH 4.5. Control group were injected with citrate buffer alone. After 7 days for the development of diabetes, plasma glucose levels were determined of each rat. Rats with fasting blood glucose (FBG) range of above 16.7 mmol/L were considered as DM rats and were used for further study.
(§2) According to the body weight and plasma glucose levels the rats were divided randomly into seven groups with six rats each and treated as follows: • Group I: Normal rats treated with 0.5% CMC-Na (2 mL/200 g body weight). • Group II: Diabetic rats treated with 0.5% CMC-Na. • Group III: Diabetic rats treated with 10 mg/kg of glibenclamide. • Group IV: Diabetic rats treated with 100 mg/kg of compound 1 (UA). • Group V: Diabetic rats treated with 100 mg/kg of compound 10. • Group VI: Diabetic rats treated with 100 mg/kg of compound 11. • Group VII: Diabetic rats treated with 100 mg/kg of compound 12.
(§3) The treatment was continued daily for 28 days. Blood glucose levels and body weight were measured every week to ascertain the status of diabetes. After 4 weeks of treatment, the animals were fasted for 12 h and sacrificed by cervical dislocation under mild anaesthetization, blood was collected into heparinized tubes and centrifuged at 2,000 rpm for 10 min. Livers and kidneys were removed, washed and homogenized in ice-cold normal saline. This homogenates were centrifuged at 3,000 rpm for 10 min at 4 °C, and the supernatants were collected for the estimate of antioxidant markers.
(§4) Fasting blood glucose levels were estimated on days 0, 7, 14, 28 with the single touch glucometer (Life Scan, Johnson & Johnson Company, New Brunswick, NJ, USA). Serum insulin level was measured by use of a commercial immunoassay kit by enzyme linked immunosorbent assay (Uscn. Life Science Inc., Wuhan, China). Serum total protein, albumin, triglycerides (TG), total cholesterol (TC), high-density lipoprotein cholesterol (HDL-C), and low-density lipoprotein cholesterol (LDL-C) were measured with an automatic biochemical analyzer (Sinnowa D240, Nanjing, China).

[4] = system: STZ-induced diabetic rats; test: Serum lipid profile (TG, TC, LDL-C, HDL-C) in STZ-induced diabetic rats; assay type: in vivo, rat; details: 4 weeks, compounds 100 mg/kg, glibenclamide 10 mg/kg
Procedure: as §1, §2, §3, §4

[5] = system: STZ-induced diabetic rats; test: Oxidative stress markers (GSH, SOD, MDA) in liver and kidney of STZ-induced diabetic rats; assay type: in vivo, rat; details: 4 weeks
Procedure: as §1, §2, §3
The tissue homogenates of liver and kidney were used for the estimate of antioxidant markers. Glutathione (GSH) level was measured with 5, 5'-dithiobis-(2-nitrobenzoic acid) (DTNB) as described by Sedlak and Lindsay. Superoxide dismutase (SOD) activity was assessed according to the method of Sinha. Malondialdehyde (MDA) activity was estimated with the thiobarbituric acid method.

[6] = system: STZ-induced diabetic rats; test: Fasting blood glucose in STZ-induced diabetic rats, 4 weeks treatment; assay type: in vivo, rat; details: for Fasting Blood Glucose Level, Week 0: Week 0 (before treatment); for Fasting Blood Glucose Level, Week 0 / Fasting Blood Glucose Level, Week 1 / Fasting Blood Glucose Level, Week 2 / Fasting Blood Glucose Level, Week 3 / Fasting Blood Glucose Level, Week 4: compounds 100 mg/kg, n = 6; for Fasting Blood Glucose Level, Week 1 / Fasting Blood Glucose Level, Week 2 / Fasting Blood Glucose Level, Week 3 / Fasting Blood Glucose Level, Week 4: glibenclamide 10 mg/kg daily
Procedure: Adult male albino rats of Sprague-Dawley rats (180–220 g) were obtained from the Guangdong Medical Lab Animal Center, and maintained under standard laboratory conditions in a temperature (25–30 °C) and light-controlled (12-h light/dark cycle) room with 35%–60% humidity. The animals were acclimatized for 10 days before the experiments and provided with rodent chow and water ad libitum. The investigation was conducted in accordance with the Guide for the Care and Use of Laboratory Animals and approved by the institutional Animal Ethics Committee.
as §1, §2, §3, §4

[7] = system: STZ-induced diabetic rats; test: Body weight and daily food intake of STZ-induced diabetic rats; assay type: in vivo, rat; details: compounds 100 mg/kg, glibenclamide 10 mg/kg, oral
Procedure: as §1, §2, §3

SGLT-1 = test: Western blot of SGLT-1 protein expression in Caco-2 cells; assay type: cell-based, Human; details: 100 μM, 6 h
Procedure: Caco-2 cells were cultured on 6-well plates at a density of 1 × 10^6 cells/well for 13 days. The cells were placed in serum-free medium for 24 h prior to the treatment. Then UA and its derivatives (100 μM) were added, after 6 h incubation, the cells were immediately washed three times with ice-cold PBS and lysed in 200 μL lysis buffer. Cells were allowed to lyse on ice, and then scraped, vortexed, sonicated and stored at −80 °C for further analysis. Protein concentrations were determined as described and cell lysate was subjected to western blot analysis. Briefly, proteins with same amount were denatured in sample buffer, separated on 8% SDS-PAGE gel, and transferred onto a polyvinylidene diflouride membrane. […] Membranes were then incubated overnight at 4 °C in blocking buffer with antibodies for GLUT-2, SGLT-1 and β-actin (EMD, Millipore, Billerica, MA, USA). Membranes were washed with TBST and incubated 1 h with appropriate secondary antibodies. Revelation was performed by using the enhanced chemiluminescence reagent and blue-light sensitive film. Densitometric analysis of films was performed with a Hewlett-Packard scanner equipped with a transparent adaptor and UN-SCAN-IT software.

[8] = STZ diabetic rats, glibenclamide 10 mg/kg

SMILES: O=C(CCc1ccc(O)cc1)c1c(O)cc(O)cc1O[C@@H]1O[C@H](CO)[C@@H](O)[C@H](O)[C@H]1O [Phlorizin, reference compound]
- inhibition at 100 µM (Caco-2 cells [1]): 7.7 ± 3.91%
- glucose uptake, % of the control value (Na+-independent) (Caco-2 cells [2]): 75 % of the control value

SMILES: CC(=O)O[C@H]1CC[C@@]2(C)C(CC[C@]3(C)C2CC=C2C4[C@@H](C)[C@H](C)CC[C@]4(C(=O)Nc4ccc(F)cc4)CC[C@]23C)C1(C)C (stereo partly drawn) [Compound 3]
- inhibition at 100 µM (Caco-2 cells [1]): 8.65 ± 3.49%

SMILES: COc1ccc(Cl)cc1C(=O)NCCc1ccc(S(=O)(=O)NC(=O)NC2CCCCC2)cc1 [Glibenclamide, reference compound]
- serum albumin level vs diabetic control [3]: increased significantly
- serum insulin level vs diabetic control [3]: increased significantly
- serum total protein level vs diabetic control [3]: increased significantly
- serum TC level vs diabetic control [4]: significantly decreased
- serum TG level vs diabetic control [4]: significantly decreased
- SOD level in the liver and kidney ([5]; liver and kidney of STZ diabetic rats): great improvement
- GSH level in liver ([5]; liver of STZ diabetic rats): significant effects
- MDA level in the liver ([5]; liver of STZ diabetic rats, daily administration): obviously down-regulated
- Fasting Blood Glucose Level, Week 0 [6, 8]: 338.40 ± 16.38 mg/dL
- Fasting Blood Glucose Level, Week 1 ([6]; STZ diabetic rats): 271.80 ± 18.36 mg/dL
- Fasting Blood Glucose Level, Week 2 ([6]; STZ diabetic rats): 183.60 ± 11.70 mg/dL
- Fasting Blood Glucose Level, Week 3 ([6]; STZ diabetic rats): 216.00 ± 9.72 mg/dL
- Fasting Blood Glucose Level, Week 4 ([6]; STZ diabetic rats): 203.40 ± 13.50 mg/dL
- decrease in blood glucose levels as compared with diabetic control ([6]; end of the 4 week treatment, compound 10 100 mg/kg, glibenclamide 10 mg/kg): 54.4%
- daily food intake vs untreated diabetic rats [7]: reduce daily food intake significantly

SMILES: CC(C)C(=O)O[C@H]1CC[C@@]2(C)C(CC[C@]3(C)C2CC=C2C4[C@@H](C)[C@H](C)CC[C@]4(C(=O)O)CC[C@]23C)C1(C)C (stereo partly drawn) [Compound 12]
- serum albumin level vs diabetic control [3]: no appreciable improvement
- serum insulin level vs diabetic control [3]: non-significant effect
- serum total protein level vs diabetic control [3]: no appreciable improvement
- effect on protein expression of SGLT-1 (SGLT-1): significantly reduce
- GSH level in kidney ([5]; kidney of STZ diabetic rats): great effect
- effect on lowering fasting blood glucose levels ([6]; STZ diabetic rats, 100 mg/kg, 4 weeks): no significant effect
- Fasting Blood Glucose Level, Week 0 [6, 8]: 325.80 ± 14.58 mg/dL
- Fasting Blood Glucose Level, Week 1 ([6]; STZ diabetic rats): 392.40 ± 36.54 mg/dL
- Fasting Blood Glucose Level, Week 2 ([6]; STZ diabetic rats): 379.80 ± 30.60 mg/dL
- Fasting Blood Glucose Level, Week 3 ([6]; STZ diabetic rats): 408.60 ± 20.52 mg/dL
- Fasting Blood Glucose Level, Week 4 ([6]; STZ diabetic rats): 432.00 ± 28.26 mg/dL
- inhibition at 100 µM (Caco-2 cells [1]): 7.67 ± 5.36%
- daily food intake vs untreated diabetic rats [7]: no obvious decrease

SMILES: CC(=O)O[C@H]1CC[C@@]2(C)C(CC[C@]3(C)C2CC=C2C4[C@@H](C)[C@H](C)CC[C@]4(C(=O)O)CC[C@]23C)C1(C)C (stereo partly drawn) [Compound 9]
- inhibition at 100 µM (Caco-2 cells [1]): 4.4 ± 3.09%

SMILES: CC(=O)O[C@H]1CC[C@@]2(C)C(CC[C@]3(C)C2CC=C2C4[C@@H](C)[C@H](C)CC[C@]4(C(=O)Nc4ccccc4Br)CC[C@]23C)C1(C)C (stereo partly drawn) [Compound 8]
- inhibition at 100 µM (Caco-2 cells [1]): 9.86 ± 2.68%
